This is an account of results in patent US20240141017A1, “FLUORESCENT BIOSENSORS AND METHODS OF USE FOR DETECTING CELL SIGNALING EVENTS” (THE REGENTS OF THE UNIVERSITY OF MICHIGAN, priority 2021, published 2024).

One assay deals with M-SPOTIT2. It is filed as cell-based. The settings on record: pH 11.
The next assay has as its target MOR (Homo sapiens, UniProt P35372). The settings on record: previous studies; cited from earlier work.
The target in another assay is T1, K-SPOTIT1.0 (Homo sapiens, UniProt P41145).
T1 construct: expressed in transfected cells; host or cells: HEK293T (lentiviral infection)
T1 sequence (P41145 with tags, fused parts or gaps): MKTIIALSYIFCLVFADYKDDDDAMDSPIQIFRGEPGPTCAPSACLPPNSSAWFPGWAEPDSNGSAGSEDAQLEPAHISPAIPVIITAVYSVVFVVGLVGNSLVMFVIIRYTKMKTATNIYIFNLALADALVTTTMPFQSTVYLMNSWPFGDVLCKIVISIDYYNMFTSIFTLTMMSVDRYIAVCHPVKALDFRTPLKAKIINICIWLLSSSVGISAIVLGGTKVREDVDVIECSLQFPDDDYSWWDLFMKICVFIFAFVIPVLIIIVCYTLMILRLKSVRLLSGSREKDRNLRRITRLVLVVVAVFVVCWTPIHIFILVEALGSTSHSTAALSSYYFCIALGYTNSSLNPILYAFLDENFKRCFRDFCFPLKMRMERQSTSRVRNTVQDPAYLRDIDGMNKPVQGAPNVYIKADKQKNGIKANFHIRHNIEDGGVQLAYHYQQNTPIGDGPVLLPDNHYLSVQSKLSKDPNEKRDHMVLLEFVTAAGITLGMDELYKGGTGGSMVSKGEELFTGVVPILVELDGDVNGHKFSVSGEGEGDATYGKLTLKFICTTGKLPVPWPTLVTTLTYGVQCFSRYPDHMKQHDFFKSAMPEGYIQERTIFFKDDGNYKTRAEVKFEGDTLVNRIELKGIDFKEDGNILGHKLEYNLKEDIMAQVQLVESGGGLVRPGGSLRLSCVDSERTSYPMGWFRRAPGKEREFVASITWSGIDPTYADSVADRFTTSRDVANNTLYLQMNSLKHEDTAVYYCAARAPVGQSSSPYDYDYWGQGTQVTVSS
In kind it is cell-based.

In assay [1] the target is kappa-opioid receptor (KOR) as in K-SPOTIT1.0 (Homo sapiens (Human)) (UniProt P41145). Nature of the assay: cell-based or functional assay.

Chain of MOR (P35372 whole entry): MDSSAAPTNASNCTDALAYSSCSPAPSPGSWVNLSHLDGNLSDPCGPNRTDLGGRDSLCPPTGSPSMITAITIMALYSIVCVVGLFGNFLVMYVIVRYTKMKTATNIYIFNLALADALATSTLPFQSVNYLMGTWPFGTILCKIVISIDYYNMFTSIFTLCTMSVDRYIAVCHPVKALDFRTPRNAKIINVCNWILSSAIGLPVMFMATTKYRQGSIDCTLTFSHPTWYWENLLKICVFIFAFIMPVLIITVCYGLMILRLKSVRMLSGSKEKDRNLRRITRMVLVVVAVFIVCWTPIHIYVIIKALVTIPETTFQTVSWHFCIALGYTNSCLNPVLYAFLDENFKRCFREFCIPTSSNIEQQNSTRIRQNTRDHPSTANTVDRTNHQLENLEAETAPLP

Take `O=C(Cc1ccc(Cl)c(Cl)c1)N1CCCCC1CN1CCCC1` (stereo not drawn) [BRL52537]: the SNR entry in the assay on M-SPOTIT2 was “much lower SNR”.
Consider `CC(C)C[C@@H](NC(=O)[C@H](Cc1ccccc1)NC(=O)CNC(=O)[C@@H](C)NC(=O)[C@@H](N)Cc1ccc(O)cc1)C(=O)O` [DADLE], for which, on MOR, the “affinity for MOR” value is listed as “weak affinity”.
As for `Oc1ccc2c3c1O[C@H]1c4[nH]c5c(c4C[C@@]4(O)[C@@H](C2)N(CC2CC2)CC[C@]314)C[C@@]1(O)[C@H]2Cc3ccc(O)c4c3[C@@]1(CCN2CC1CC1)[C@H]5O4` [Nor-BNI, nor-binaltorphimine], at K-SPOTIT1.0, the “fluorescence before and after addition of KOR antagonist post fluorophore maturation” value is recorded as “Comparable fluorescence”; the “fluorescence increase when antagonist added after initial 30-second agonist stimulation, vs Nor-BNI only cells” value is “No significant fluorescence increase”.
Turning to `COC(=O)[C@@H]1C[C@H](OC(C)=O)C(=O)[C@H]2[C@@]1(C)CC[C@H]1C(=O)O[C@H](c3ccoc3)C[C@]21C` [Sal A, Salvinorin A], in the assay with M-SPOTIT2, the SNR entry is given as “much lower SNR”.
On to `CN(C)C(=O)C(CCN1CCC(O)(c2ccc(Cl)cc2)CC1)(c1ccccc1)c1ccccc1` [loperamide], for which, in the assay with M-SPOTIT2, the SNR result is on record as “highest SNR”.
Same read-out and setting: in the case of `CN1CC[C@]23c4c5ccc(O)c4O[C@H]2[C@@H](O)C=C[C@H]3[C@H]1C5` [morphine] it was “highest SNR”; in that of `C=CCN1CC[C@]23c4c5ccc(O)c4O[C@H]2C(=O)CC[C@@]3(O)[C@H]1C5` [naloxone], “much lower SNR”; in that of `COc1ccc2c3c1O[C@H]1C(=O)CC[C@@]4(O)[C@@H](C2)N(C)CC[C@]314` [oxycodone], “highest SNR”.

B1: Gαi protein mimic nanobody 39 (Nb39) (VHH)
VHH: QVQLVESGGGLVRPGGSLRLSCVDSERTSYPMGWFRRAPGKEREFVASITWSGIDPTYADSVADRFTTSRDVANNTLYLQMNSLKHEDTAVYYCAARAPVGQSSSPYDYDYWGQGTQVTVSS
Regarding B1, in assay [1], the cpGFP fluorescence of K-SPOTIT1.0 after a 30-second pulse of Sal A, then 24 hours of incubation is 4.2 fold; the cpGFP fluorescence of K-SPOTIT1.0 after longer Sal A incubation is 12 fold; the cpGFP fluorescence of K-SPOTIT1.0 in HEK293T cells, 24 hours with 10 µM Salvinorin A against no Sal A worked out at 10.9 fold.
